# Results as given in patent US8889676B2, “3-ureidoisoquinolin-8-yl derivatives” (Actelion Pharmaceuticals Ltd., priority 2011, dated 2014).
# System: S. pneumoniae ATCC 49619
# Assay: Minimal inhibitory concentration (MIC) by broth microdilution (CLSI M7-A7)
# Type: cell-based, Streptococcus pneumoniae
# Conditions: Streptococcus pneumoniae, ATCC49619; cation-adjusted Mueller Hinton Broth supplemented with 3% (v/v) lysed horse blood; microdilution method
# Procedure: Minimal inhibitory concentrations (MICs; mg/l) were determined in cation-adjusted MuellerHinton Broth (supplemented with 3% (v/v) lysed horse blood for testing Streptococcus pneumoniae) by a microdilution method following the description given in “Methods for Dilution Antimicrobial Susceptibility Tests for Bacteria that Grow Aerobically”, Approved standard, 7th ed., a Clinical and Laboratory Standards Institute (CLSI) Document M7-A7, Wayne, Pa., USA, 2006.
row,MIC,SMILES
1,4 µg/mL,"CCNC(=O)Nc1cc2c(-c3ccncc3)ccc(CNC(=O)OCC(O)CO)c2cn1.Cl (racemic) [Example 103, (±)-[3-(3-ethyl-ureido)-5-pyridin-4-yl-isoquinolin-8-ylmethyl]-carbamic acid 2,3-dihydroxy-propyl ester hydrochloride]"
2,0.25 µg/mL,"C#CC(C)OC(=O)NCc1ccc(-c2ccncc2)c2cc(NC(=O)NCC)ncc12 (racemic) [Example 108, (±)-[3-(3-ethyl-ureido)-5-pyridin-4-yl-isoquinolin-8-ylmethyl]-carbamic acid 1-methyl-prop-2-ynyl ester]"
3,2 µg/mL,"C#CCC(=O)NCc1cccc2cc(NC(=O)NCC)ncc12 [Example 1, but-3-ynoic acid [3-(3-ethyl-ureido)-isoquinolin-8-ylmethyl]-amide]"
4,2 µg/mL,"CCNC(=O)Nc1cc2cccc(CNC(=O)c3ccncc3)c2cn1 [Example 2, N-[3-(3-ethyl-ureido)-isoquinolin-8-ylmethyl]-isonicotinamide]"
5,4 µg/mL,"CCNC(=O)Nc1cc2cccc(CNC(C)=O)c2cn1 [Example 3, N-[3-(3-ethyl-ureido)-isoquinolin-8-ylmethyl]-acetamide]"
6,2 µg/mL,"CCNC(=O)Nc1cc2cccc(CNC(=O)c3ccccc3)c2cn1 [Example 4, N-[3-(3-ethyl-ureido)-isoquinolin-8-ylmethyl]-benzamide]"
7,4 µg/mL,"CCNC(=O)Nc1cc2cccc(CNC(=O)CC#N)c2cn1 [Example 5, 2-cyano-N-[3-(3-ethyl-ureido)-isoquinolin-8-ylmethyl]-acetamide]"
8,4 µg/mL,"CCNC(=O)Nc1cc2cccc(CNC(=O)C3CCCCC3)c2cn1 [Example 6, cyclohexanecarboxylic acid [3-(3-ethyl-ureido)-isoquinolin-8-ylmethyl]-amide]"
9,2 µg/mL,"CCNC(=O)Nc1cc2cccc(CNC(=O)CC3CC3)c2cn1 [Example 7, 2-cyclopropyl-N-[3-(3-ethyl-ureido)-isoquinolin-8-ylmethyl]-acetamide]"
10,8 µg/mL,"CCNC(=O)Nc1cc2cccc(CNC(=O)CNC(C)=O)c2cn1 [Example 8, 2-acetylamino-N-[3-(3-ethyl-ureido)-isoquinolin-8-ylmethyl]-acetamide]"
11,2 µg/mL,"C#CC(=O)NCc1cccc2cc(NC(=O)NCC)ncc12 [Example 9, propynoic acid [3-(3-ethyl-ureido)-isoquinolin-8-ylmethyl]-amide]"
12,4 µg/mL,"CCNC(=O)Nc1cc2cccc(CNC(=O)c3cccnc3)c2cn1 [Example 10, N-[3-(3-ethyl-ureido)-isoquinolin-8-ylmethyl]-nicotinamide]"
13,2 µg/mL,"CCNC(=O)Nc1cc2cccc(CNC(=O)c3ccccn3)c2cn1 [Example 11, pyridine-2-carboxylic acid [3-(3-ethyl-ureido)-isoquinolin-8-ylmethyl]-amide]"
14,1 µg/mL,"CCNC(=O)Nc1cc2cccc(CNC(=O)Cc3ccccc3)c2cn1 [Example 12, N-[3-(3-ethyl-ureido)-isoquinolin-8-ylmethyl]-2-phenyl-acetamide]"
15,2 µg/mL,"CCNC(=O)Nc1cc2cccc(CNC(=O)C3CC3)c2cn1 [Example 13, cyclopropanecarboxylic acid [3-(3-ethyl-ureido)-isoquinolin-8-ylmethyl]-amide]"
16,4 µg/mL,"CCNC(=O)Nc1cc2cccc(CNC(=O)C(C)(C)C)c2cn1 [Example 14, N-[3-(3-ethyl-ureido)-isoquinolin-8-ylmethyl]-2,2-dimethyl-propionamide]"
17,4 µg/mL,"CCNC(=O)Nc1cc2cccc(CNC(=O)COC)c2cn1 [Example 15, N-[3-(3-ethyl-ureido)-isoquinolin-8-ylmethyl]-2-methoxy-acetamide]"

row,MIC,SMILES
1,4 µg/mL,"CCNC(=O)Nc1cc2cccc(CNC(=O)c3ncc[nH]3)c2cn1 [Example 16, 1H-imidazole-2-carboxylic acid [3-(3-ethyl-ureido)-isoquinolin-8-ylmethyl]-amide]"
2,8 µg/mL,"C#CCCC(=O)NCc1cccc2cc(NC(=O)NCC)ncc12 [Example 17, pent-4-ynoic acid [3-(3-ethyl-ureido)-isoquinolin-8-ylmethyl]-amide]"
3,4 µg/mL,"CCNC(=O)Nc1cc2cccc(CNC(=O)C(C)C)c2cn1 [Example 18, N-[3-(3-ethyl-ureido)-isoquinolin-8-ylmethyl]-isobutyramide]"
4,8 µg/mL,"CCNC(=O)Nc1cc2cccc(CNC(=O)CN(C)C)c2cn1 [Example 19, 2-dimethylamino-N-[3-(3-ethyl-ureido)-isoquinolin-8-ylmethyl]-acetamide]"
5,1 µg/mL,"CCNC(=O)Nc1cc2cccc(CNC(=O)c3cn[nH]n3)c2cn1 [Example 20, 2H-[1,2,3]triazole-4-carboxylic acid [3-(3-ethyl-ureido)-isoquinolin-8-ylmethyl]-amide]"
6,8 µg/mL,"CCNC(=O)Nc1cc2cccc(CNC(=O)CCC(N)=O)c2cn1 [Example 21, N-[3-(3-ethyl-ureido)-isoquinolin-8-ylmethyl]-succinamide]"
7,4 µg/mL,"CCNC(=O)Nc1cc2cccc(CNC(=O)c3cncn3C)c2cn1 [Example 22, 3-methyl-3H-imidazole-4-carboxylic acid [3-(3-ethyl-ureido)-isoquinolin-8-ylmethyl]-amide]"
8,1 µg/mL,"CCNC(=O)Nc1cc2c(-c3ccncc3)ccc(CNC(=O)c3cccnc3)c2cn1 [Example 23, N-[3-(3-ethyl-ureido)-5-pyridin-4-yl-isoquinolin-8-ylmethyl]-nicotinamide]"
9,4 µg/mL,"CCNC(=O)Nc1cc2cccc(CNC(=O)OCC)c2cn1.Cl [Example 24, [3-(3-ethyl-ureido)-isoquinolin-8-ylmethyl]-carbamic acid ethyl ester hydrochloride]"
10,2 µg/mL,"CCNC(=O)Nc1cc2cccc(CNC(=O)OCc3ccncc3)c2cn1.Cl [Example 25, [3-(3-ethyl-ureido)-isoquinolin-8-ylmethyl]-carbamic acid pyridin-4-ylmethyl ester hydrochloride]"
11,4 µg/mL,"CCNC(=O)Nc1cc2cccc(CNC(=O)OCc3cncnc3)c2cn1.Cl [Example 26, [3-(3-ethyl-ureido)-isoquinolin-8-ylmethyl]-carbamic acid pyrimidin-5-ylmethyl ester hydrochloride]"
12,4 µg/mL,"CCNC(=O)Nc1cc2cccc(CNC(=O)OCCF)c2cn1.Cl [Example 27, [3-(3-ethyl-ureido)-isoquinolin-8-ylmethyl]-carbamic acid 2-fluoro-ethyl ester hydrochloride]"
13,4 µg/mL,"CCNC(=O)Nc1cc2cccc(CNC(=O)OCC3CC3)c2cn1.Cl [Example 28, [3-(3-ethyl-ureido)-isoquinolin-8-ylmethyl]-carbamic acid cyclopropylmethyl ester hydrochloride]"
14,4 µg/mL,"CCNC(=O)Nc1cc2cccc(CNC(=O)OCc3ccncn3)c2cn1.Cl [Example 29, [3-(3-ethyl-ureido)-isoquinolin-8-ylmethyl]-carbamic acid pyrimidin-4-ylmethyl ester hydrochloride]"
15,4 µg/mL,"CCNC(=O)Nc1cc2cccc(CNC(=O)OC(C)C)c2cn1.Cl [Example 30, [3-(3-ethyl-ureido)-isoquinolin-8-ylmethyl]-carbamic acid isopropyl ester hydrochloride]"
16,2 µg/mL,"C#CCOC(=O)NCc1cccc2cc(NC(=O)NCC)ncc12.Cl [Example 31, [3-(3-ethyl-ureido)-isoquinolin-8-ylmethyl]-carbamic acid prop-2-ynyl ester hydrochloride]"
